According to paper PMC3310380 (Journal of Biomolecular Screening, 2010):

Legend:
[1] = system: EBV genome copy number in Raji Burkitt lymphoma cells; assay: EBV genome maintenance assay in Raji cells; type: cell-based, Epstein-Barr virus; conditions: six days, 50 μM
EBNA1 DBD = EBNA1 DBD (Epstein-Barr virus, UniProt P03211 459-607); assay: EMSA
Chain of EBNA1 DBD (P03211 459-607): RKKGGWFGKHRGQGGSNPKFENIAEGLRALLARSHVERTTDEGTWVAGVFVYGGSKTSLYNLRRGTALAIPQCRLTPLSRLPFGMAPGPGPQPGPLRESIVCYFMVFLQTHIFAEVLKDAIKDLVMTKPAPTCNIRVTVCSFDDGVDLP

Molecule | EBV DNA copy number, of its original content relative to cellular actin [1] | binding result (EBNA1 DBD)
NC(=O)NO [HU, hydroxyurea] | ~ 48% | 
Probe A (dsDNA) DNA 1: GGGTAGCATATGCTACCC DNA 2: GGGTAGCATATGCTACCC |  | binds
